Results reported in patent US11384063B2, “Modulators of estrogen receptor proteolysis and associated methods of use” (Arvinas Operations, Inc., priority 2017, dated 2022).
pIC50: −log10 of the molar value. Counter-ions that a name gives are not always drawn.

Tests used:
[1] = biological target: T1, ERα (Homo sapiens, UniProt P03372); test: ERE luciferase reporter gene assay in T47D-KBluc cells (target engagement); format: cell-based; design: T47D human breast cancer cells stably transfected with estrogen responsive element/promoter/luciferase reporter gene; host or cells: T47D-KBluc cells; conditions: 10% FBS, 24 hours, Table 3 cereblon centric PROTACs, read-out: ER-α Luciferase IC50
T1 sequence (P03372 1-595): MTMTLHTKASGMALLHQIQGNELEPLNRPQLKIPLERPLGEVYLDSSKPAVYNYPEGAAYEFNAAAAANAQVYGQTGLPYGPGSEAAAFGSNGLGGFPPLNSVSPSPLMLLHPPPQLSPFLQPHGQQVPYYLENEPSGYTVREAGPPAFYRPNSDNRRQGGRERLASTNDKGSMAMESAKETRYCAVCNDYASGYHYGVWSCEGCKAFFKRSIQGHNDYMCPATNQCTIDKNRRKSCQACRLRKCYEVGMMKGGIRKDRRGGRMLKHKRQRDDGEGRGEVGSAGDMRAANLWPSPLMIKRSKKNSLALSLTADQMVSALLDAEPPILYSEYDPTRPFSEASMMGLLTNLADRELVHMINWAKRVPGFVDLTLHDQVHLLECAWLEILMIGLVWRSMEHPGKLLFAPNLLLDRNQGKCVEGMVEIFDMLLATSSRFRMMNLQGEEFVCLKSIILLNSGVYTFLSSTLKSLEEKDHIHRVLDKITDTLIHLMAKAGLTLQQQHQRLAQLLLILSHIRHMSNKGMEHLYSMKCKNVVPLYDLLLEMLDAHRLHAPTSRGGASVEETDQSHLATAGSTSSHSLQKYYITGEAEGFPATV
Method in brief: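 PROTACs were tested at 12 concentrations from 300 nM down to 2 pM in 3-fold steps for 24 h on T47D-KBluc cells with a stable ERE-driven luciferase. Medium was RPMI with 10% FBS, measured at 10 pM estrogen. IC50 came from luminescence after lysis, in duplicate.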

[2] = biological target: T1, ERα; test: Estrogen receptor-alpha (ERα) degradation assay in MCF7 cells using In-Cell Western assay; format: cell-based; design: assessed for their activity in degrading ERα in MCF-7 cells via western blot; endogenous in cells; host or cells: MCF7 cells; conditions: ER-alpha degradation in MCF7 cells, 5 days of incubation
Experimental: Estrogen Receptor-Alpha (ERα) Degradation Assay Using in-Cell Western™ Assay for Table 5.
Degradation of ERα by claimed compounds were determined in MCF7 cells using an In-Cell Western™ assay. Briefly, MCF7 cells were plated in 96-well plates (2000 cells per well in 100 μl media) and incubated at 37° C. under an atmosphere of 5% CO2 in a humidified incubator overnight. One-hundred (100) μI of media containing test compound (at 2x concentration) was added to the appropriate wells to provide 11 serially decreasing concentrations (top final concentration, 1 μM then 3-fold less for the next 10 concentrations); a vehicle control (DMSO) was also added for each compound. For each experiment, all compounds were assayed on duplicate plates. Cells were then incubated for 3 or 5 days in the above-mentioned environment. The assay was terminated by removal of media, a single wash with ice-cold PBS and the addition of 50 μl paraformaldehyde (PFA: 4% in PBS). After 15 minutes in PFA at room temperature, the cells were permeabilized in Tris-phosphate-buffered saline with Tween (0.1%) (TBST) supplemented with Triton X-100 (0.5%) for 15 minutes. Cells were then blocked in BSA (TBST with BSA, 3%) for one hour. Primary antibodies for the detection of ERa (rabbit monoclonal, 1:1000, Cell Signaling Technology Catalog #8644) and tubulin (mouse monoclonal, 1:5000, Sigma Catalog #T6074) in TBST with BSA (3%) were added. The cells were incubated overnight at 4° C. The cells were then washed thrice with TBST at room temperature and then incubated with anti-rabbit and anti-mouse fluorescently-labelled secondary antibodies (IRDye®; LI-COR; Lincoln, Nebr.) in LI-COR blocking buffer (Catalog #927-50000) for one hour at room temperature. Following 3 washes with TBST, the buffer was removed and the plates were read on an Odyssey® infrared imaging system (LI-COR®, Lincoln, Nebr.) at 700 nm and 800 nm. Using commercial software (ImageStudio™; LI-COR, Lincoln, Nebr.), the staining intensity for ERa and tubulin in each well was quantified and exported for analysis. For each data point, ERa intensity was normalized to tubulin intensity and for each compound all normalized intensity values were normalized to the vehicle control. DC50 and Dmax values were determined following a 4-parameter IC50 curve fit using ACAS dose response module (McNeil & Co Inc.).

| pIC50 [1] | DC50 [2] | Dmax [2] | Compound |
| --- | --- | --- | --- |
| 8.62 | 1 to 10 nM | > 75% | O=C1CCC(N2C(=O)c3ccc(NCCCN4CCCN(CCOc5ccc(Oc6c(-c7ccc(Br)cc7)sc7cc(O)ccc67)cc5)CC4)cc3C2=O)C(=O)N1 (stereo not drawn) [Compound 178, 5-[3-[4-[2-[4-[2-(4-bromophenyl)-6-hydroxy-benzothiophen-3-yl]oxyphenoxy]ethyl]-1,4-diazepan-1-yl]propylamino]-2-(2,6-dioxo-3-piperidyl)isoindoline-1,3-dione] |
| 9.00 | 1 to 10 nM | 50 to 75% | O=C1CCC(N2Cc3cc(NCCCN4CCN(CCOc5ccc(Oc6c(-c7ccc(C(F)(F)F)cc7)sc7cc(O)ccc67)cc5)CC4)ccc3C2=O)C(=O)N1 (stereo not drawn) [Compound 179] |
| 9.66 | < 1 nM | > 75% | COc1ccc(-c2sc3cc(O)ccc3c2Oc2ccc(OCCN3CCN(CCCNc4ccc5c(c4)CN(C4CCC(=O)NC4=O)C5=O)CC3)cc2)cc1 (stereo not drawn) [Compound 180, 3-[5-[3-[4-[2-[4-[6-hydroxy-2-(4-methoxyphenyl)benzothiophen-3-yl]oxyphenoxy]ethyl]piperazin-1-yl]propylamino]-1-oxo-isoindolin-2-yl]piperidine-2,6-dione] |
| 8.66 | 1 to 10 nM | 50 to 75% | COc1ccc2c(Oc3ccc(OCCN4CCN(CCCNc5ccc6c(c5)CN(C5CCC(=O)NC5=O)C6=O)CC4)cc3)c(-c3ccc(O)cc3)sc2c1 (stereo not drawn) [Compound 181, 3-[5-[3-[4-[2-[4-[2-(4-hydroxyphenyl)-6-methoxy-benzothiophen-3-yl]oxyphenoxy]ethyl]piperazin-1-yl]propylamino]-1-oxo-isoindolin-2-yl]piperidine-2,6-dione] |
| 8.72 | 1 to 10 nM | > 75% | O=C1CC[C@H](N2Cc3cc(CCN4CCCN(CCCCOc5ccc(Oc6c(-c7ccc(Br)cc7)sc7cc(O)ccc67)cc5)CC4)ccc3C2=O)C(=O)N1 [Compound 182, (3S)-3-[5-[2-[4-[4-[4-[2-(4-bromophenyl)-6-hydroxy-benzothiophen-3-yl]oxyphenoxy]butyl]-1,4-diazepan-1-yl]ethyl]-1-oxo-isoindolin-2-yl]piperidine-2,6-dione] |
| 8.60 | 10 to 100 nM | 50 to 75% | O=C1CCC(N2C(=O)c3ccc(N4CCN(C5CCN(CCOc6ccc(Oc7c(-c8ccc(Br)cc8)sc8cc(O)ccc78)cc6)CC5)CC4)cc3C2=O)C(=O)N1 (stereo not drawn) [Compound 183, 5-[4-[1-[2-[4-[2-(4-bromophenyl)-6-hydroxy-benzothiophen-3-yl]oxyphenoxy]ethyl]-4-piperidyl]piperazin-1-yl]-2-(2,6-dioxo-3-piperidyl)isoindoline-1,3-dione] |
| 7.88 | 10 to 100 nM | > 75% | O=C1CCC(N2C(=O)c3ccc(N4CCN(CC5CCN(CCOc6ccc(Oc7c(-c8ccc(Br)cc8)sc8cc(O)ccc78)cc6)CC5)CC4)cc3C2=O)C(=O)N1 (stereo not drawn) [Compound 184, 5-[4-[1-[2-[4-[2-(4-bromophenyl)-6-hydroxy-benzothiophen-3-yl]oxyphenoxy]ethyl]-4-piperidylmethyl]piperazin-1-yl]-2-(2,6-dioxo-3-piperidyl)isoindoline-1,3-dione] |
| 8.35 | 1 to 10 nM | 50 to 75% | O=C1CCC(N2C(=O)c3ccc(N4CCN(CC5CN(CCOc6ccc(Oc7c(-c8ccc(Br)cc8)sc8cc(O)ccc78)cc6)C5)CC4)cc3C2=O)C(=O)N1 (stereo not drawn) [Compound 185, 5-[4-[[1-[2-[4-[2-(4-bromophenyl)-6-hydroxy-benzothiophen-3-yl]oxyphenoxy]ethyl]azetidin-3-yl]methyl]piperazin-1-yl]-2-(2,6-dioxo-3-piperidyl)isoindoline-1,3-dione] |
| 7.94 | 1 to 10 nM | 50 to 75% | O=C1CCC(N2C(=O)c3ccc(C4CCN(C5CCN(CCOc6ccc(Oc7c(-c8ccc(Br)cc8)sc8cc(O)ccc78)cc6)CC5)CC4)cc3C2=O)C(=O)N1 (stereo not drawn) [Compound 190, 5-(1′-(2-(4-((2-(4-bromophenyl)-6-hydroxybenzo[b]thiophen-3-yl)oxy)phenoxy)ethyl)-[1,4′-bipiperidin]-4-yl)-2-(2,6-dioxopiperidin-3-yl)isoindoline-1,3-dione Hydrochloride] |
| 8.74 | 1 to 10 nM | 50 to 75% | O=C1CCC(N2C(=O)c3ccc(N4CC(CN5CCCN(CCOc6ccc(Oc7c(-c8ccc(Br)cc8)sc8cc(O)ccc78)cc6)CC5)C4)cc3C2=O)C(=O)N1 (stereo not drawn) [Compound 191, 5-(3-((4-(2-(4-((2-(4-bromophenyl)-6-hydroxybenzo[b]thiophen-3-yl)oxy)phenoxy)ethyl)-1,4-diazepan-1-yl)methyl)azetidin-1-yl)-2-(2,6-dioxopiperidin-3-yl)isoindoline-1,3-dione] |
| 8.54 | 10 to 100 nM | > 75% | O=C1CCC(N2Cc3cc(N4CCN(C5CCN(CCOc6ccc(Oc7c(-c8ccc(C(F)(F)F)cc8)sc8cc(O)ccc78)cc6)CC5)CC4)ccc3C2=O)C(=O)N1 (stereo not drawn) [Compound 192, 3-[5-[4-[1-[2-[4-[6-hydroxy-2-[4-(trifluoromethyl)phenyl]benzothiophen-3-yl]oxyphenoxy]ethyl]-4-piperidyl]piperazin-1-yl]-1-oxo-isoindolin-2-yl]piperidine-2,6-dione] |
| 8.01 | 1 to 10 nM | > 75% | O=C1CCC(N2Cc3c(ccc(N4CCN(C5CCN(CCOc6ccc(Oc7c(-c8ccc(C(F)(F)F)cc8)sc8cc(O)ccc78)cc6)CC5)CC4)c3F)C2=O)C(=O)N1 (stereo not drawn) [Compound 193, 3-[4-fluoro-5-[4-[1-[2-[4-[6-hydroxy-2-[4-(trifluoromethyl)phenyl]benzothiophen-3-yl]oxyphenoxy]ethyl]-4-piperidyl]piperazin-1-yl]-1-oxo-isoindolin-2-yl]piperidine-2,6-dione] |
| 8.41 | 1 to 10 nM | > 75% | O=C1CCC(N2Cc3cc(N4CCN(C5CCN(CCOc6ccc(Oc7c(-c8ccc(Br)cc8)sc8cc(O)ccc78)cc6)CC5)CC4)ccc3C2=O)C(=O)N1 (stereo not drawn) [Compound 194, 3-[5-[4-[1-[2-[4-[2-(4-bromophenyl)-6-hydroxybenzothiophen-3-yl]oxyphenoxy]ethyl]-4-piperidyl]piperazin-1-yl]-1-oxo-isoindolin-2-yl]piperidine-2,6-dione] |
| 9.09 | 1 to 10 nM | 50 to 75% | O=C1CCC(N2Cc3cc(CCCCN4CCCN(CCOc5ccc(Oc6c(-c7ccc(Br)cc7)sc7cc(O)ccc67)cc5)CC4)ccc3C2=O)C(=O)N1 (stereo not drawn) [Compound 199, 3-[5-[4-[4-[2-[4-[2-(4-bromophenyl)-6-hydroxybenzothiophen-3-yl]oxyphenoxy]ethyl]-1,4-diazepan-1-yl]butyl]-1-oxo-isoindolin-2-yl]piperidine-2,6-dione] |
| 8.08 | 10 to 100 nM | > 75% | O=C1CCC(N2Cc3c(ccc(N4CCN(CC5CCN(CCOc6ccc(Oc7c(-c8ccc(C(F)(F)F)cc8)sc8cc(O)ccc78)cc6)CC5)CC4)c3F)C2=O)C(=O)N1 (stereo not drawn) [Compound 201, 3-[4-fluoro-5-[4-[[1-[2-[4-[6-hydroxy-2-[4-(trifluoromethyl)phenyl]benzothiophen-3-yl]oxyphenoxy]ethyl]-4-piperidyl]methyl]piperazin-1-yl]-1-oxo-isoindolin-2-yl]piperidine-2,6-dione] |
